Assay results taken from US11129835B2, “Methods and compositions for the inhibition of PIN1” (Beth Israel Deaconess Medical Center, Inc., priority 2012, dated 2021).

Legend:
Pin1 [1] = target: T1, Pin1 (Homo sapiens, UniProt Q13526); assay: Pin1 fluorescence polarization competition assay with Tamra-probe (secondary); conditions: for Emax: read-out: Tamra Secondary Efficacy
Method: An assay was developed for the identification of inhibitors of Pin1. […] Candidate compounds were screened in a concentration-titration series (e.g., 57 μM to 0.7 nM).
(§1) Pin1 (0.6 μM) was dispensed into black, solid 1536-well plates (32 rows by 48 columns) at 2 μL/well in Pin1 buffer (10 mM HEPES (pH 7.5), 10 mM NaCl, 0.01% Tween20, 1 mM DTT, and 1% glycerol). Next, 23 nL of compound or DMSO was delivered to each well using a pin tool (tip wash sequence: DMSO, IPA, MeOH, 3 s vacuum dry). Two μL of Pin1-1b-HiFluor488 peptide in buffer (10 mM HEPES (pH 7.5), 10 mM NaCl, 0.01% Tween20, 1 mM DTT, and 1% glycerol, 0.02 μM Pin1-1b-HiFluor488) or DMSO was then dispensed to each well using a pin tool (tip wash sequence: DMSO, IPA, MeOH, 3 s vacuum dry), and plates were incubated at room temperature for 10 min (Table 2). Each plate included controls with no candidate inhibitory compound (32 wells), with unlabeled Pin1-1c titration (3.5 mM to 0.020 mM in a 1:2 dilution series including 2 replicates per concentration; 32 wells), and without Pin1 (64 wells).
(§2) The fluorescence polarization signal of each well was measured on a ViewLux® plate reader using a 480/20 nm excitation filter and 540/25 nm S and P emission filters with a 20 second exposure with 2× binning (Table 2). Percent inhibitory activity was determined from corrected fluorescence polarization values.
(§3) Concentration-response curves were fitted to the signals arising from the resulting fluorescence polarization. The concentration-effect curves were then classified based on curve quality (r^2), response magnitude, and degree of measured activity. Compounds were subsequently categorized based on their curve class.
A further secondary assessment was accomplished by replacing the HiFluor-488-labeled probe with Tamra-probe, a red-shifted fluorophore.

Pin1 [2] = target: T1, Pin1; assay: confirmatory Pin1 fluorescence polarization competition assay (Alexa488 reconfirmed); conditions: for Emax: read-out: Alexa488 Reconfirmed Efficacy;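 as to all read-outs here: Pin1 competition with a HiFluor488-labelled peptide probe, read as fluorescence polarization after 10 min at room temperature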
Method: (§4) The goal of this assay was to identify small-molecule inhibitors of Pin1 using a fluorescence polarization competition assay (FIG. 1). […] Candidate compounds were screened in a concentration-titration series (e.g., 57 μM to 0.7 nM).
as §1, §2, §3

Pin1 [3] = target: T1, Pin1; assay: Pin1 fluorescence polarization competition assay, primary qHTS (HiFluor-488 / Alexa488 probe);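 also: Pin1 protein with fluorescent peptide probe, compound displacement read by fluorescence polarization, percent inhibition derived from corrected polarization values, concentration-response curves in 1536-well format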
Method: as §4, §1, §2, §3
Curves showing change polarized fluorescence may be categorized into 5 classes. Class 1 includes complete curves, having 2 asymptotes and an r^2 value of ≥0.9, with an efficacy of either >80% (class 1.1) or ≤80% (class 1.2). Class 1 curves may also be classified as noisy curves when efficacy is >80% and r^2<0.9 (class 1.3) or when efficacy is ≤80% and r^2<0.9 (class 1.4). Class 2 includes incomplete curves having 1 asymptote and an r^2 value of either >0.9 (subclass a) or <0.9 (subclass b), with an efficacy of either >80% (class 2.1) or ≤80% (class 2.2). Class 2 curves may also be classified as noisy curves when efficacy is >80% and r^2<0.9 (class 2.3) or when efficacy is ≤80% and r^2<0.9 (class 2.4). Class 3 includes single point activity curves having 1 asymptote and an efficacy >3 SD from the mean activity of the sample field at the highest tested concentration. […] A fifth class captures any curves not otherwise classified (FIG. 4).

[4] = Alexa488 Primary Potency, primary qHTS
[5] = Average HTS Potency, average over Alexa488 primary, Alexa488 reconfirmed and Tamra secondary assays
[6] = read-out: Alexa488 Primary Efficacy

T1 sequence (Q13526 whole entry): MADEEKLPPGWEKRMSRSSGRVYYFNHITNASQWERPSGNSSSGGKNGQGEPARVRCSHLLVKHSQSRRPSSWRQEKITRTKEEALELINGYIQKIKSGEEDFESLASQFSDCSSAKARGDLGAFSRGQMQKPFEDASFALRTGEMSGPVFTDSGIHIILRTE

SMILES	IC50 (Pin1 [1]) [µM]	Emax (Pin1 [1]) [%]	IC50 (Pin1 [2]) [µM]	Emax (Pin1 [2]) [%]	IC50 (Pin1 [3]; [4]) [µM]	IC50 (Pin1 [3]; [5]) [µM]	Alexa488 Primary Curve Class (Pin1 [3]; primary qHTS)	Emax (Pin1 [3]; [6]) [%]	Emax (Pin1 [3]; read-out: Average HTS Efficacy) [%]	Tamra Secondary Curve Class (Pin1 [1]; Tamra-probe)	Alexa488 Reconfirmed Curve Class (Pin1 [2]; confirmatory retest)	Tamra Secondary Efficacy (Pin1 [1]; Tamra-probe) [% Inh.]	Alexa488 Reconfirmed Efficacy (Pin1 [2]; confirmatory retest) [% Inh.]	Average HTS Efficacy (Pin1 [3]; average over Alexa488 primary, Alexa488 reconfirmed and Tamra secondary assays) [% Inh.]	Alexa488 Primary Efficacy (Pin1 [3]; primary qHTS) [% Inh.]
CC(=O)c1ccc2c(c1)C1C=CCC1C(C(=O)O)N2 (centres unmarked) [Compound 1]	1.2	95	1.3	90	6	3	1.2 (≤80% (class 1.2))	66	84						
O=C(O)C1Nc2c(O)cc(Cl)c([N+](=O)[O-])c2C2C=CCC12 (centres unmarked) [Compound 2]	3	69	2	89	7	4		86	81	1.2 (≤80% (class 1.2))					
O=C(O)c1cccc2c1NC(C(=O)O)C1CC(Sc3ccccc3[N+](=O)[O-])C(Cl)C21 (centres unmarked) [Compound 3]										1.2 (≤80% (class 1.2))	1.2 (≤80% (class 1.2))	72	61	71	80
O=C(O)C1Nc2c(O)cccc2C2C=CCC12 (centres unmarked) [Compound 4]	11	37			3	7	1.2 (≤80% (class 1.2))	23	30	2.2 (≤80% (class 2.2))					
O=C(O)C1Nc2c(Cl)cc(Cl)c(Cl)c2C2C=CCC12 (centres unmarked) [Compound 5]	2	61	2	75	18	7	1.2 (≤80% (class 1.2))	53	63	1.2 (≤80% (class 1.2))	1.2 (≤80% (class 1.2))				
O=C(O)C1Nc2ccc(Br)cc2C2C=CCC12 (centres unmarked) [Compound 6]	11	87	10	85	22	14		42	72						
Cc1ccc(C)c2c1NC(C(=O)O)C1CC=CC21 (centres unmarked) [Compound 7]	14	63		91	45	29	1.2 (≤80% (class 1.2))	63	72	2.2 (≤80% (class 2.2))	2.2 (≤80% (class 2.2))				
O=C(O)C1Nc2c(C(F)(F)F)ccc(Cl)c2C2C=CCC12 (centres unmarked) [Compound 8]	18	52		103	45	31	2.2 (≤80% (class 2.2))	67	74	2.2 (≤80% (class 2.2))	2.2 (≤80% (class 2.2))				
O=S(=O)(O)c1ccc(O)c2cc(Nc3ccccc3)ccc12 [Compound 13]	3	88	2	89	9	4		89	89						
CCCCCC(=O)Nc1cc(S(=O)(=O)O)cc2cc(S(=O)(=O)O)cc(O)c12 [Compound 16]	2	84	2	93	76	27		54	77						
Cc1ccc(C)n1-c1sccc1C(=O)O [Compound 18]	2	95	2	91	68	24		44	77						
O=C(O)CCCNC(=O)/C=C/c1ccco1 [Compound 19]	5	78	2	73	38	15	1.2 (≤80% (class 1.2))	41	64	2.2 (≤80% (class 2.2))	1.2 (≤80% (class 1.2))				
O=C(c1ccc(=O)oc1)N1CCOCC1 [Compound 20]	6	70	2	77	14	7		73	73	1.2 (≤80% (class 1.2))	1.2 (≤80% (class 1.2))				
Cc1ccc(NC(=O)CN(C)C(=O)c2cccc(-n3cccc3)c2)cc1 [Compound 25]	30	73			38	34	2.2 (≤80% (class 2.2))	22	47	3.0					
O=C(c1cccs1)c1no[n+]([O-])c1C(=O)c1cccs1 [Compound 28]			0.08	99	1.69	0.89		89	94						
COc1ccc(NC(=O)CN(C)C(O)c2cc(-c3ccco3)nc3ccccc23)cc1 (centres unmarked) [Compound 39]	21	53			14	17	2.2 (≤80% (class 2.2))	28	41	3.0					
O=C(O)c1[nH]c2ccccc2c1C(c1cc(Br)ccc1O)c1c(C(=O)O)[nH]c2ccccc12 [Compound 43]	24	71			16	20	1.2 (≤80% (class 1.2))	63	67	3.0					
CCOc1cc(Br)cc(C(c2c(C(=O)O)[nH]c3ccccc23)c2c(C(=O)O)[nH]c3ccccc23)c1O [Compound 45]	38	71			22	30		72	71	3.0					
CCn1nc(-c2ccccc2C)nc2c(=O)n(C)c(=O)nc1-2 [Compound 48]			1	73	1	1		53	63						
CC(=O)Nc1cc(=O)c2[nH]o[nH]c=2c1=O [Compound 50]			7	98	1	4		93	95						

The next lines start with results.

IC50 (Pin1 [1]) [µM]	Emax (Pin1 [1]) [%]	IC50 (Pin1 [2]) [µM]	Emax (Pin1 [2]) [%]	IC50 (Pin1 [3]; [4]) [µM]	IC50 (Pin1 [3]; [5]) [µM]	Alexa488 Primary Curve Class (Pin1 [3]; primary qHTS)	Emax (Pin1 [3]; [6]) [%]	Emax (Pin1 [3]; read-out: Average HTS Efficacy) [%]	Tamra Secondary Curve Class (Pin1 [1]; Tamra-probe)	Alexa488 Reconfirmed Curve Class (Pin1 [2]; confirmatory retest)	SMILES	Tamra Secondary Efficacy (Pin1 [1]; Tamra-probe) [% Inh.]	Alexa488 Reconfirmed Efficacy (Pin1 [2]; confirmatory retest) [% Inh.]	Average HTS Efficacy (Pin1 [3]; average over Alexa488 primary, Alexa488 reconfirmed and Tamra secondary assays) [% Inh.]	Alexa488 Primary Efficacy (Pin1 [3]; primary qHTS) [% Inh.]
1.2	97	2	111	10	4		78	95			Cc1ccc(N(Cc2cc(=O)[nH]c3ccccc23)C(=O)CCl)cc1 [Compound 9]				
		4.8	82.9	22.4	13.6	2.2 (≤80% (class 2.2))	81.3	82.1			Cc1cccc(N(Cc2cc(=O)[nH]c3ccccc23)C(=O)CCl)c1 [Compound 10]				
4	91	3	93	3	3	1.2 (≤80% (class 1.2))	65	83			NS(=O)(=O)c1cc(C(=O)NC2CCSc3ccccc32)ccc1Cl (centres unmarked) [Compound 11]				
1.1	92	1.2	93	15	6	1.2 (≤80% (class 1.2))	78	88			O=C1OC(/C(=C\Nc2cc(Cl)ccc2O)[N+](=O)[O-])c2ccccc21 (centres unmarked) [Compound 12]				
8	85	1	59	21	10	1.2 (≤80% (class 1.2))	71	72		1.2 (≤80% (class 1.2))	COc1ccccc1Nc1ccc2c(O)cc(S(=O)(=O)O)cc2c1 [Compound 14]				
12	300	11	71	10	11	2.2 (≤80% (class 2.2))	27	133		2.2 (≤80% (class 2.2))	O=S(=O)(O)c1cc(O)c2cc(Nc3ccccc3)ccc2c1 [Compound 15]				
3	89	2	83	10	5		64	79			Cc1ccc(C)n1-c1cccc(C(=O)O)c1 [Compound 17]				
		6	98	19	13		103	101			COc1cc(/C=C2\SC(=O)N(c3ccc(Cl)cc3)C2=O)cc([N+](=O)[O-])c1O [Compound 38]				
		1	70	50	25	1.2 (≤80% (class 1.2))	27	48			Cn1nc(-c2ccncc2)nc2c(=O)n(C)c(=O)nc1-2 [Compound 49]				
